Reference: US6414020B2, “Amidino protease inhibitors” (3- Dimensional Pharmaceuticals, Inc., priority 1995, dated 2002)
Structures can show the parent of a compound that is named as a salt.

How the values were obtained:
Type in all cases: biochemical
human α-thrombin = target: T1, human α-thrombin (Homo sapiens, UniProt P00734); test: In vitro inhibition of purified thrombin, Ki determination (p-nitroanilide substrate hydrolysis); details: Enzyme: Thrombin; substrate Suc-Ala-Ala-Pro-Arg-pNA 20 μM, 37° C., pH 7.5
T1 construct: Purified human a-thrombin was diluted into assay buffer; purchased Enzyme Research Laboratories (South Bend, Indiana)
From the text: (§1) All buffer salts were obtained from Sigma Chemical Company (St. Louis, Mo.), and were of the highest purity available. The enzyme substrates, N-benzoyl-Phe-Val-Arg-p-nitroanilide (SigmaB7632),N-benzoyl-Ile-Glu-Gly-Arg-p-nitroanilide (Sigma B2291), N-p-tosyl-Gly-Pro-Lys-p-nitroanilide (Sigma T6140), and N-succinyl-Ala-Ala-Pro-Phe-p-nitroanilide (Sigma S7388) were all obtained from Sigma.
(§2) Human α-thrombin and human factor Xa were obtained from Enzyme Research Laboratories (South Bend, Indiana). Bovine trypsin was obtained from Sigma.
All assays are based on the ability of the test compound to inhibit the enzyme catalyzed hydrolysis of a peptide p-nitroanilide substrate. In a typical Ki determination, substrate is prepared in DMSO, and diluted into an assay buffer consisting of 50 mM HEPES, 200 mM NaCl, pH 7.5. The final concentration for each of the substrates is listed below. In general, substrate concentrations are lower than the experimentally determined value for Km. Test compounds are prepared as a 0.16 mg/mL solution in DMSO. Dilutions are prepared in DMSO yielding 8 final concentrations encompassing a 200-fold concentration range. Enzyme solutions are prepared at the concentrations listed below in assay buffer.
(§3) In a typical Ki determination, into each well of a 96 well plate is pipetted 280 uL of substrate solution, 10 μL of inhibitor solution, and the plate allowed to thermally equilibrate at 37° C. in a Molecular Devices plate reader for >10 minutes. Reactions were initiated by the addition of a 20 μL aliquot of enzyme, and the absorbance increase at 405 nm is recorded for 15 minutes. Data corresponding to less than 10% of the total substrate hydrolysis were used in the calculations. The ratio of the velocity (rate of the change in absorbance as a function of time) for a sample containing no inhibitor is divided by the velocity of a sample containing inhibitor, and is plotted as a finction of inhibitor concentration. The data are fit to a linear regression, and the value of the slope of the line calculated. The inverse of the slope is the experimentally determined Ki value.
Thrombin activity was assessed as the ability to hydrolyze the substrate Suc-Ala-Ala-Pro-Arg-pNA. Substrate solutions were prepared at a concentration of 20 μM (20 uM<<Km=180 μM) in assay buffer. Final DMSO concentration was 0.3%. Purified human a-thrombin was diluted into assay buffer to a concentration of […]. Final reagent concentrations were: [thrombin] ═0.5 nM, [Suc-Ala-Ala-Pro-Arg-pNA]=20 μM.

bovine trypsin = target: T2, bovine trypsin (Bos taurus, UniProt P00760); test: In vitro inhibition of purified trypsin, Ki determination (p-nitroanilide substrate hydrolysis); details: Enzyme: Trypsin; substrate Bz-Phe-Val-Arg-pNA 14 μM, 37° C., pH 7.5
T2 construct: Purified bovine trypsin was diluted into assay buffer; purchased Sigma
T2 sequence (P00760 24-246): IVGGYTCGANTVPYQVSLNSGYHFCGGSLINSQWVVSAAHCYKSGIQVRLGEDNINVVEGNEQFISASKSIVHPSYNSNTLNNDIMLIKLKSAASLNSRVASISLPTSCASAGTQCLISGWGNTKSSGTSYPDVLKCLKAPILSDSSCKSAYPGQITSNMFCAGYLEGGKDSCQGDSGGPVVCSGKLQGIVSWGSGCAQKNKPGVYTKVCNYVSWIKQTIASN
From the text: as §1, §2
(§4) All assays are based on the ability of the test compound to inhibit the enzyme catalyzed hydrolysis of a peptide p-nitroanilide substrate. […] In general, substrate concentrations are lower than the experimentally determined value for Km. […]
as §3, with “Data corresponding to less than 10% of the total substrate hydrolysis were used in the calculations.” left out, “The data are fit to a linear regression, and the value of the slope of the line calculated. The inverse of the slope is the experimentally determined Ki value.” left out

human factor Xa = target: T3, human factor Xa (Homo sapiens, UniProt P00742); test: In vitro inhibition of purified factor Xa, Ki determination (p-nitroanilide substrate hydrolysis); details: Enzyme: Factor Xa; substrate Bz-Ile-Glu-Gly-Arg-pNA 51 μM, 37° C., pH 7.5
T3 construct: purchased Enzyme Research Laboratories (South Bend, Indiana)
T3 sequence (P00742 235-488 limits assumed): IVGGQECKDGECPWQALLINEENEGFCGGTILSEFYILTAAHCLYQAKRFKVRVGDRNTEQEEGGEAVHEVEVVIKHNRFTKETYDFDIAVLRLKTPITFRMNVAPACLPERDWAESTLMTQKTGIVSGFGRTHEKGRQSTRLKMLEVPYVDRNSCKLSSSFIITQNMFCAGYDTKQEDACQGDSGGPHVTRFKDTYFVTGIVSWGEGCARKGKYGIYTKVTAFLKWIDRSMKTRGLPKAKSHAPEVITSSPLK
T3 sequence (P00742 41-179 limits assumed): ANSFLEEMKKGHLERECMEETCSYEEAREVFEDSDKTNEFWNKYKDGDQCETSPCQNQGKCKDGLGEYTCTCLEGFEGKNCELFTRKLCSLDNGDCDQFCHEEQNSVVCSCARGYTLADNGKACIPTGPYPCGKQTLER
From the text: as §1, §2, §4
as §3, with “Data corresponding to less than 10% of the total substrate hydrolysis were used in the calculations.” left out, “The data are fit to a linear regression, and the value of the slope of the line calculated. The inverse of the slope is the experimentally determined Ki value.” left out

bovine α-chymotrypsin = target: T4, bovine α-chymotrypsin (Bos taurus, UniProt P00766); test: In vitro inhibition of purified chymotrypsin, Ki determination (p-nitroanilide substrate hydrolysis); details: Enzyme: Chymotrypsin; substrate Suc-Ala-Ala-Pro-Phe-pNA 14 μM, 37° C., pH 7.5
T4 construct: Purified bovine x-chymotrypsin was diluted into assay buffer
From the text: as §1
All assays are based on the ability of the test compound to inhibit the enzyme catalyzed hydrolysis of a peptide p-nitroanilide substrate. In a typical Ki determination, substrate is prepared in DMSO, and diluted into an assay buffer consisting of 50 mM HEPES, 200 mM NaCl, pH 7.5. […] In general, substrate concentrations are lower than the experimentally determined value for Km. […]
as §3, with “Data corresponding to less than 10% of the total substrate hydrolysis were used in the calculations.” left out, “The data are fit to a linear regression, and the value of the slope of the line calculated. The inverse of the slope is the experimentally determined Ki value.” left out

| Ki (human α-thrombin) | SMILES | further results |
| --- | --- | --- |
| 1.72 µM | CC(=N)N1CCC(COc2cc(C)cc(OS(=O)(=O)c3cccc(Cl)c3Cl)c2)CC1 [Example 8, 2,3-Dichlorobenzenesulfonic acid 3-[[(1-acetimidoyl)piperidin-4-yl]methoxy]-5-methylphenyl ester hydrochloride] |  |
| 1.65 µM | CC(=N)N1CCC(COc2cc(C)cc(OS(=O)(=O)c3ccccc3Cl)c2)CC1 [Example 1, 2-Chlorobenzenesulfonic acid 3-[(1-acetimidoylpiperidin-4-yl)methoxy]-5-methylphenyl ester hydrochloride] |  |
|  | Cc1cc(OCc2cccc(C(=N)NO)c2)cc(OS(=O)(=O)c2ccccc2Cl)c1 [Example 7, 2-Chlorobenzenesutronic acid 3-[[3-(N-hydroxy)amidinophenyl]methoxy-5-methylphenyl ester hydrochloride] | Ki (bovine trypsin): 5.23 µM |
|  | Cc1cc(OCc2cccc(C(=N)N)c2)cc(OS(=O)(=O)c2ccccc2Cl)c1 [Example 6, 2-Chlorobenzenesulfonic acid 3-[(3amidinophenyl)methoxy]-5-methylphenyl ester hydrochloride] | Ki (human factor Xa): 2.72 µM |
| 0.57 µM | Cc1cc(OCCCC(=N)N)cc(OS(=O)(=O)c2ccccc2Cl)c1 [Example 14, 2-Chlorobenzenesulfonic acid 3-[3-amidinopropoxy]-5-methylphenyl ester hydrochloride] |  |
|  | Cc1cc(OCCCCCC(=N)N)cc(OS(=O)(=O)c2ccccc2Cl)c1 [Example 18, 2-Chlorobenzenesulfonic acid 3-[5-amidinopentyloxy]-5-methylphlenyl ester acetic acid salt] | Ki (bovine α-chymotrypsin): 6.29 µM |
| 4.86 µM | CC(=N)N1CCC(COc2cc(C)cc(OS(=O)(=O)c3cccc(Cl)c3)c2)CC1 [Example 5, 3-Chlorobenzenesulfonic acid 3-[[(1-acetimidoyl)piperidin-4-yl]methoxyl]-5-methylphenyl ester hydrochloride] |  |
